The target in assay [1] is T1, B1 bradykinin receptor (Rattus norvegicus, UniProt P97583).
T1 sequence (P97583 whole entry): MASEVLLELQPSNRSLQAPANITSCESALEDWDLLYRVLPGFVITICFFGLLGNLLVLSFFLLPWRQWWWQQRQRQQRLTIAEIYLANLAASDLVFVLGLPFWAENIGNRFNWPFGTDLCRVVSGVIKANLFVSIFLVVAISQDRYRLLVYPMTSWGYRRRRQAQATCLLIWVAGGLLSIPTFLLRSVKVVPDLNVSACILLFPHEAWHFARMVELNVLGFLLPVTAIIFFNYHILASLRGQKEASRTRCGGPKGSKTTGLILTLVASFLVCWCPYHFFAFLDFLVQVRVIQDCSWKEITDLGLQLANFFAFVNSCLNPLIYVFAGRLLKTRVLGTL
As to the kind of experiment: Compound was evaluated for agonist activity against B1 receptor in rat ileum longitudinal smooth muscle. It is filed as functional, tissue-based.

Assay [2] has as its target T2, B2 bradykinin receptor (Cavia porcellus, UniProt O70526).
T2 sequence (O70526 whole entry): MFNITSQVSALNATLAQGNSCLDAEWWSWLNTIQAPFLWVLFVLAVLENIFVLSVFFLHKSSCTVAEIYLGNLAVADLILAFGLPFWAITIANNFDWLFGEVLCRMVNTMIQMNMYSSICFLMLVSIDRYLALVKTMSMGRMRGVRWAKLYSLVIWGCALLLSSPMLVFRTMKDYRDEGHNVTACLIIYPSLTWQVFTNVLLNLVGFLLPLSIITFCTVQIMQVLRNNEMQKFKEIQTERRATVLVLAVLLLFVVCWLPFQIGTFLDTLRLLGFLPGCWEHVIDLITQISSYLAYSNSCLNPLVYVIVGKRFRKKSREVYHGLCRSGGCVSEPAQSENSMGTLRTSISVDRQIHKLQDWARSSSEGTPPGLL
The assay can be described thus: Compound was evaluated for inhibitory activity against [3H]BK in the classical guinea pig ileum B2 binding assay. The format is tissue-based.

Assay [3] concerns the target T2, B2 bradykinin receptor. As to the kind of experiment: Functional antagonism against BK-induced contractions in the classical guinea pig ileum B2 binding assay. The format is tissue-based. The conditions noted are these: read-out: pA2 (converted).
The target in assay [4] is T3, B2 bradykinin receptor (Homo sapiens, UniProt P30411).
T3 sequence (P30411 whole entry): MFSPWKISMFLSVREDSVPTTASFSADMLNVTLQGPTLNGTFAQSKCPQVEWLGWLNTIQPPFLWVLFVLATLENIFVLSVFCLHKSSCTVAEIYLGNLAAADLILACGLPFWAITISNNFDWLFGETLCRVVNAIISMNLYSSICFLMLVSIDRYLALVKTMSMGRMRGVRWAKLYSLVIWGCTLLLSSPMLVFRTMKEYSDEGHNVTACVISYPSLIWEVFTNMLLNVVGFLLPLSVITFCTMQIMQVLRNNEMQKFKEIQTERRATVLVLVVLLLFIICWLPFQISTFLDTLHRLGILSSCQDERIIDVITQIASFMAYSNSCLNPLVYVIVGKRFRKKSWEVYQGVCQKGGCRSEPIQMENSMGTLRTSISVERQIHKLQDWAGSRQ
The assay can be described thus: Compound was evaluated for inhibitory activity against [3H]BK in membrane preparations from a stable cell line that expresses the human B2 receptor.

Molecules are shown by their SMILES. Numbered stars: 1 amine (or outer) side, 2 acyl side, 3 side chain; on linkers, the order of the positions; unused ones are H or OH. Square brackets hold non-standard residues; d marks the D form. Peptide text beside a SMILES is read from it. ξ: configuration not given here. Oic(3aξ,7aξ) = O=C(O)[C@@H]1CC2CCCCC2N1; X2 = O=C([C@H]1c2ccccc2CCN1[*:1])[*:2]; X1 = O=C(CCCCCCCCCCCCN[*:1])[*:2]

As to `NCCCC[C@H](N)C(=O)N[C@@H](CCCN=C(N)N)C(=O)N1CCC[C@H]1C(=O)N1CCC[C@H]1C(=O)NCC(=O)N[C@@H](Cc1ccccc1)C(=O)N[C@@H](CO)C(=O)N1CCC[C@H]1C(=O)N[C@@H](Cc1ccccc1)C(=O)O`, a half-maximal response in assay [1] (EC50) required 85 nM.
`N=C(N)NCCC[C@H](NC(=O)[C@H](N)CCCN=C(N)N)C(=O)NCCCCCCCCCCCC(=O)N[C@@H](CO)C(=O)N1CCc2ccccc2[C@@H]1C(=O)N1C2CCCCC2C[C@H]1C(=O)N[C@@H](CCCN=C(N)N)C(=O)O` (stereo not given in full): the Ki in assay [2] was found to be 360 nM. In addition, in assay [3], the Kb is 3160 nM.
In turn, `NCCCC[C@H](N)C(=O)N[C@@H](CCCN=C(N)N)C(=O)NCCCCCCCCCCCCC(=O)N[C@@H](CO)C(=O)N1CCC[C@H]1C(=O)N[C@@H](Cc1ccccc1)C(=O)O` (H-KR[X1]SPF-OH) displayed a concentration giving a half-maximal response (EC50) in assay [1] of 980 nM.
With `NC(N)=NCCC[C@H](NC(=O)[C@@H]1CC2CCCCC2N1C(=O)[C@H]1c2ccccc2CCN1C(=O)[C@H](CO)NC(=O)CCCCCCCCCCCCNC(=O)[C@H](CCCN=C(N)N)NC(=O)[C@@H](N)CCCN=C(N)N)C(=O)O` (stereo not given in full) (H-RR[X1]S[X2][Oic(3aξ,7aξ)]R-OH), in assay [4], the Ki is 44 nM.

What is called EC50 is the concentration that produces a half-maximal response. Read a low EC50 as a more potent agent. As a reminder, the Ki is a measure of affinity in units of concentration, obtained from inhibition or displacement.

(Values after ChEMBL document CHEMBL1130580, “Synthesis and biological activity of new bradykinin pseudopeptide B1 receptor agonists containing alkylic spacers” (Bioorg Med Chem Lett, 1997).)
